Laboratory results reported in patent US8937068B2, “Pyridopyrazine derivatives and their use” (Zentaris GmbH, priority 2005, dated 2015).

Key:
Jnk1 + Jnk2 = test: Cell-free kinase assay (ALPHA technology), Jnk1 + Jnk2; type: biochemical, human; settings: 10 μM ATP
How it was run: (§1)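 Recombinant human GST- or His-tagged kinases were assayed for 1 h with ALPHA bead detection read after overnight standing. For PI3Kalpha: 1 ng enzyme, 100 μM ATP, 20 μM PIP2 in Hepes pH 7.4, detected by GST:Grp1/biotin-PIP3 competition. The p38alpha and Jnk assays followed the MAPK format (10 μM ATP, biotin-MBP, anti-phospho-MBP); IC50 from %-inhibition.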

Hct116 = test: XTT assay, anti-proliferative effect, Hct116; type: cell-based; settings: 45 h incubation
Description: The principle of this test is based on the intracellular reduction of the tetrazolium dye XTT (sodium 3′-[1-(phenylaminocarbonyl)-3,4-tetrazolium]-bis(4-methoxy-6-nitro)benzene sulfonic acid, Sigma) to a formazan dye by mitochondrial dehydrogenases. The dye is only formed by metabolically active cells and its photometrically measurable intensity is a quantitative indicator for the presence of living cells. The reduction of dye formation by incubation of the cells with substances serves as a parameter for the anti-proliferative effect.
The tumour cell lines (ATCC) were injected into 96-well microtitre plates in a defined cell number (5000 cells/well for BxPC3 and Hct116; 10000 cells/well for MDA MB468) and then incubated overnight in an incubator at 37° C., 5% CO2 and 95% air humidity. The test substances were prepared as stock solutions (10 mM) in DMSO. […] The cell plates were then incubated for 45 h in an incubator at 37° C., 5% CO2 and 95% air humidity.
For the detection reaction the substrate XTT was mixed with PMS (N-Methyl dibenzopyrazine methylsulfate, Sigma) and added to the cells so that a final concentration of 325 μg XTT/ml and 2.5 μg PMS/ml was obtained. It was then incubated for 3 h at 37° C., 95% air humidity. The formazan salt formed by the cellular dehydrogenases could then be quantified by adsorption at 490 nm.
The % inhibition value was evaluated by means of the following formula from the values for the optical densities measured in each case at 490 nm:
Eight determinations were made for each control and two for the substance samples. The 0% control contains no cells, the 100% control (proliferation control) contains no test substance. The EC50 values were determined using GraphPadPrism.

PI3Kalpha = PI3Kalpha (Homo sapiens (Human), UniProt P42336); test: Cell-free kinase assay (ALPHA technology), PI3Kalpha; type: biochemical; settings: 100 μM ATP
How it was run: as §1

Sequence of PI3Kalpha (P42336 whole entry): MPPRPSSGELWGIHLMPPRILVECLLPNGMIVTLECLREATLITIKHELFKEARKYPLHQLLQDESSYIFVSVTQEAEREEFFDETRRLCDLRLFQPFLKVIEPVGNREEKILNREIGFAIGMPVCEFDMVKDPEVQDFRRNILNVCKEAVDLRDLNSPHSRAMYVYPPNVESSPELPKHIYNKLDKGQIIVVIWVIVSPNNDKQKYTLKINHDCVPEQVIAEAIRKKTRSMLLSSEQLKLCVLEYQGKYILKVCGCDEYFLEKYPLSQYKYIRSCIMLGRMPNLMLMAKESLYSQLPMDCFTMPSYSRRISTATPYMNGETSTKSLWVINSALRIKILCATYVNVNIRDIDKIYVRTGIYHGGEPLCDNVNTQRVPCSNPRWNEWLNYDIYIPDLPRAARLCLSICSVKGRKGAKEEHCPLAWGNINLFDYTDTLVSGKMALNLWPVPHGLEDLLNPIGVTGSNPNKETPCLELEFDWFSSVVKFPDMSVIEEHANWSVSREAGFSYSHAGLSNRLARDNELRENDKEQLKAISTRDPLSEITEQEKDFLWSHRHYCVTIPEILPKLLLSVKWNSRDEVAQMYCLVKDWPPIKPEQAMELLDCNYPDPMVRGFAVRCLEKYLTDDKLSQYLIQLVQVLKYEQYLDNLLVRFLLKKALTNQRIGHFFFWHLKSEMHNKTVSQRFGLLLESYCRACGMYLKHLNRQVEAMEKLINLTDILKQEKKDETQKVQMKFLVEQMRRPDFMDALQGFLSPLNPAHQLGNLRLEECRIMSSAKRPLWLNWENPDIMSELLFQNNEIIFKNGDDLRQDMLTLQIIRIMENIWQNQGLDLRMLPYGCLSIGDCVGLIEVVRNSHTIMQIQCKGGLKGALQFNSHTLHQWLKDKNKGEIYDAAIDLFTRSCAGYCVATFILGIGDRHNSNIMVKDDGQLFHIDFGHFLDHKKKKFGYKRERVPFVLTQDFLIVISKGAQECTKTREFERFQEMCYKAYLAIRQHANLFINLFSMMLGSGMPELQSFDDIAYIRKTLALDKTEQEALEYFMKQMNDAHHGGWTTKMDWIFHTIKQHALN
Sequence of PI3Kalpha (P27986 whole entry partner): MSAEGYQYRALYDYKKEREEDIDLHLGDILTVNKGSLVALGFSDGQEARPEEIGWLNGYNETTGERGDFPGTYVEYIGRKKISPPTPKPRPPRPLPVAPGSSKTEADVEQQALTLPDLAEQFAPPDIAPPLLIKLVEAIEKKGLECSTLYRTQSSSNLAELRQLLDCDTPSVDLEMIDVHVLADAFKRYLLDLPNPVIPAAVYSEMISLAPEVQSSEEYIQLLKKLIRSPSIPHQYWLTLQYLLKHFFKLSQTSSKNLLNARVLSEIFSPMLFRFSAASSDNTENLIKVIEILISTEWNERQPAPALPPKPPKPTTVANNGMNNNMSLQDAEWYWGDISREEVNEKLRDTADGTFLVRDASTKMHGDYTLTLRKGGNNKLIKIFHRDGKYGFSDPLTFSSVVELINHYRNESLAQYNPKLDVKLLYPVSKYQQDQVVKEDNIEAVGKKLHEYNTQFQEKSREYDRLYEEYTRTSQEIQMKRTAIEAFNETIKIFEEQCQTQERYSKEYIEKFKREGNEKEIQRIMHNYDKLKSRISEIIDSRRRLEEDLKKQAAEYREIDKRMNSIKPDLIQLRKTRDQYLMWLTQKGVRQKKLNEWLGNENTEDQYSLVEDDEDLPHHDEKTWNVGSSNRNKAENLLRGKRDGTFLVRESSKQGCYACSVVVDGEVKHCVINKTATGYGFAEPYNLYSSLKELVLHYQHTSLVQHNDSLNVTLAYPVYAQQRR

IC50 (Jnk1 + Jnk2) | EC50 (Hct116; Homo sapiens, HCT-116) | IC50 (PI3Kalpha) | EC50 (Hct116) | Structure (SMILES)
21800 nM | 6000 nM | 370 nM | – | C=CCNC(=S)Nc1ccc2ncc(-c3ccc(O)cc3)nc2n1 [Compound 30, 1-allyl-3-[3-(4-hydroxy-phenyl)-pyrido[2,3-b]pyrazin-6-yl]-thiourea]
1000 nM | 1500 nM | 490 nM | – | CCNC(=O)Nc1ccc2ncc(-c3ccc(O)c(OC)c3)nc2n1 [Compound 124, 1-Ethyl-3-[3-(4-hydroxy-3-methoxy-phenyl)-pyrido[2,3-b]pyrazin-6-yl]-urea]
3300 nM | 9300 nM | 1100 nM | – | O=C(NCCCCO)Nc1ccc2ncc(-c3ccccc3)nc2n1 [Compound 146, 1-(4-Hydroxy-butyl)-3-(3-phenyl-pyrido[2,3-b]pyrazin-6-yl)-urea]
> 100000 nM | 2300 nM | 129 nM | – | CCNC(=O)Nc1ccc2ncc(Nc3ccc(C)cc3)nc2n1 [Compound 150, 1-Ethyl-3-(3-p-tolylamino-pyrido[2,3-b]pyrazin-6-yl)-urea]
2900 nM | 9000 nM | 2400 nM | – | CCNC(=O)Nc1ccc2ncc(-c3cnn(C)c3)nc2n1 [Compound 173, 1-Ethyl-3-[3-(1-methyl-1H-pyrazol-4-yl)-pyrido[2,3-b]pyrazin-6-yl]-urea]
4700 nM | – | 2800 nM | 2100 nM | CCNC(=O)Nc1ccc2ncc(-c3ccc(O)c(OC)c3)nc2n1.Cc1ccc(S(=O)(=O)O)cc1 [Compound 183, 1-Ethyl-3-[3-(4-hydroxy-3-methoxy-phenyl)-pyrido[2,3-b]pyrazin-6-yl]-urea p-Toluolsulfonate]
